Experiments:
Human erythrocytes = assay: Haemolytic test; format: cell-based; conditions: 6 μg of peptide I, 10^6 erythrocytes, 37° C.
Experimental: Human erythrocytes are washed 3 times with PBS buffer. 10^6 erythrocytes are incubated with 6 μg of peptide I for various periods of time at 37° C. After centrifugation at 10,000 g for 5 min, the optical density of the supernatant is measured at 540 nm.

HeLa cells = assay: Transfection of HeLa cells with luciferase plasmid pGL3, light emission in cell lysates; format: cell-based; conditions: for RLU (luciferase light emission): DNA 1.5 μg; for transfection (in words): summary of Table II
Experimental: The HeLa cells are cultured at 37° C. in an EMEM medium supplemented with 10% foetal calf serum under an atmosphere containing 5% CO2.
1.5 to 12 μg of peptide I in 50 μl of dilution buffer (20 mM Tris, pH 7.4, 150 mM NaCl) are incubated with 1.5 μg of plasmid pGL3 in 250 μl of EMEM medium for 15 to 30 min at room temperature.
The mixture of DOTAP or of DOSPER with 1.5 μg of plasmid pGL3 is prepared according to the manufacturer's instructions (Boehringer). For the studies of the effect of the peptide on transfection in the presence of liposomes, portions of peptides are mixed with DOTAP or DOSPER in the dilution buffer defined above for 15 to 30 min at room temperature, and then 1.5 μg of plasmid pGL3 are added and incubated for 15 min at room temperature.
The transfections are carried out in plates comprising 24 wells (Beckton Dickinson) with 1.5×10^5 cells/well (confluence of about 50%) for 1 h at 37° C. After 24 h, the light emission is measured in the cell lysates with the Promega Luciferase Assay System test.

| Molecule | RLU (luciferase light emission) (HeLa cells; Table II, peptide 9 μg) | RLU (luciferase light emission) (HeLa cells; Table II, peptide 12 μg) | RLU (luciferase light emission) (HeLa cells; Table II, peptide 3-12 μg) | transfection (in words) (HeLa cells) | other results |
| --- | --- | --- | --- | --- | --- |
| CC(C)C[C@H](NC(=O)[C@H](CCCNC(=N)N)NC(=O)[C@H](C)NC(=O)[C@H](CCCNC(=N)N)NC(=O)[C@H](CCCCN)NC(=O)[C@H](C)N)C(=O)N[C@@H](CO)C(=O)N[C@H](C(=O)N[C@@H](CO)C(=O)N[C@@H](Cc1ccccc1)C(=O)N[C@@H](CC(N)=O)C(=O)N1CCC[C@H]1C(=O)N[C@H](C(=O)N[C@@H](Cc1ccc(O)cc1)C(=O)N1CCC[C@H]1C(=O)N[C@@H](Cc1ccc(O)cc1)C(=O)N[C@@H](CCC(=O)O)C(=O)N[C@@H](CC(=O)O)C(=O)N[C@@H](CCC(=O)O)C(=O)N[C@@H](CO)C(=O)N[C@@H](CCCCN)C(=O)N[C@@H](CCCCN)C(=O)N[C@@H](CCCCN)C(=O)N[C@@H](CCCCN)C(=O)N[C@@H](CCCCN)C(=O)N[C@@H](CCCCN)C(=O)N[C@@H](CCCCN)C(=O)N[C@@H](CCCCN)C(=O)N[C@@H](CCCCN)C(=O)N[C@@H](CCCCN)C(=O)N[C@@H](CCCCN)C(=O)N[C@@H](CCCCN)C(=O)N[C@@H](CCCCN)C(=O)N[C@@H](CCCCN)C(=O)N[C@@H](CCCCN)C(=O)N[C@@H](CCCCN)C(=O)N[C@@H](CCCCN)C(=O)N[C@@H](CCCCN)C(=O)N[C@@H](CCCCN)C(=O)N[C@@H](CCCCN)C(=O)O)C(C)C)[C@@H](C)O [Peptide I, AKRARLSTSFNPVYPYEDES - K20] |  |  |  |  | haemolytic test result (Human erythrocytes): negative results |
| A K R A R L S T S E D E S-K10 (AKRARLSTSEDESKKKKKKKKKK) [Peptide IE] | 110 RLU/10 s/10^5 cells × 10^3 | 330 RLU/10 s/10^5 cells × 10^3 |  |  | RLU (luciferase light emission) (HeLa cells; Table II, peptide 3 μg): 1 RLU/10 s/10^5 cells × 10^3; RLU (luciferase light emission) (HeLa cells; Table II, peptide 6 μg): 10 RLU/10 s/10^5 cells × 10^3; times less efficient than peptide IC (HeLa cells; transfection efficiency, Table II): approximately 30 times |
| AKRARLSTSFNPVYPYEDES - K10 [Peptide IC] | 2870 RLU/10 s/10^5 cells × 10^3 | 1330 RLU/10 s/10^5 cells × 10^3 |  |  | RLU (luciferase light emission) (HeLa cells; Table II, peptide 3.6 μg): 1 RLU/10 s/10^5 cells × 10^3; effect of reduced number of lysines in the polylysine polymer on transfection efficiency (HeLa cells; can be compensated for by increasing the quantity of peptide): modest negative effect |
| AKRARLSTSFNPVYPYEDES [Peptide IA] |  |  | 1 RLU/10 s/10^5 cells × 10^3 | no transfection |  |
| L S T S F N P V Y P Y E D E S-K20 [Peptide ID] |  |  | 1 RLU/10 s/10^5 cells × 10^3 | no transfection | attaching and condensing the DNA and entering into the cell (HeLa cells): still capable of attaching and condensing the DNA and of entering into the cell; transport of the DNA into the nucleus (HeLa cells): incapable of transporting this DNA into the nucleus |
